Assays:
N-type Ca channel = type: cell-based, mouse

| Compound | increase in atrial muscle contractile force by nerve stimulus (isolated mouse atrium) | influx of Ca2+ inhibited by ω-conotoxin GVIA (N-type Ca channel) |
| --- | --- | --- |
| NC1=N[C@H](O)[C@H]2[C@H]3O[C@]4(O)O[C@@H]([C@@H](O)[C@@]2(N1)[C@@H]4O)[C@]3(O)CO [tetrodotoxin] | completely inhibited | – |
| ω-conotoxin GVIA | – | not observed |

From patent US7067714B1 (priority 1999, dated 2006)
